Results published in patent EP0518216A2, “N-/Arylethyl/-N-alkyl-2-(1-pyrrolidinyl)ethylamine derivatives for CNS disorders” (G.D. Searle & Co., priority 1991, dated 1992).

Experiments:
[1] = target: Sigma receptors; assay: Sigma receptor binding assay with [3H]-(+)-3-PPP, crude P2 membranes; details: guinea pig brain membranes; determined in independent experiments
Protocol: Sigma receptors were labeled with [^3H]-(+)-3-PPP (109 Ci/mmol).
For most compounds in the study, a concentration range of 0.0005-100 nM was appropriate. […] Twelve concentrations of unlabelled ligand were incubated with 3 nM [^3H](+)-3-PPP as described in Methods. The CDATA iterative curve fitting program (EMF Software, Inc., Baltimore, MD) was used to determine IC50 values. Values are the average of 2-4 experiments, ±SEM. Each experiment was carried out in duplicate. The Cheng-Prussoff equation^27 was then used to convert IC50 values to apparent Ki values.

[2] = target: PCP receptors; assay: Phencyclidine (PCP) receptor binding assay with [3H]TCP; details: guinea pig brain; determined in independent experiments
[3] = test system: dynorphin A induced spinal cord injury model; assay: Dynorphin A induced spinal cord injury model (hindlimb motor function); assay type: in vivo, rat
From the text: Neuroprotective properties of BD-1008 and selected compounds of this invention have been evaluated in the dynorphin A induced spinal cord injury model. Along with several other neuropeptides, dynorphin A has potent vasoconstrictory effects on the vasculature of the rat brain and spinal cord; thus it provides a convenient, reproducible pharmacological means to induce and study ischemic central nervous system injury. Furthermore, localized effects of this peptide on the lumbosacral spinal cord following L4-L5 intervertebral injection allows for simple and straightforward neurological appraisals through assessment of hindlimb motor function.

CCCN1CCC[C@H](c2cccc(O)c2)C1 [[^3H]-(+)-3-PPP]
Kd [1]: 0.0274 µM

c1csc(C2(N3CCCCC3)CCCCC2)c1 [[^3H]TCP]
Kd [2]: 0.025 µM

CN(CCc1ccc(Cl)c(Cl)c1)CCN1CCCC1 [BD-1008]
impact on the primary vascular responses to dynorphin A ([3]; dynorphin A-induced reduction in lumbosacral blood flow): without any measurable impact | neurological recovery from the flaccid hindlimb paralysis ([3]; paralysis from a 20 nanomole dose of dynorphin A, L4-L5 intervertebral injection): significantly improves neurological recovery
